From patent US11052131B2, “Methods and pharmaceutical compositions for the treatment of kidney cancer” (INSERM (Institut National de la Santé et de la Recherche …, priority 2016, dated 2021)
“Also recorded” adds a separate entry of the source.

Legend:
[1] = target: recombinant human furin (Homo sapiens, UniProt P09958); experiment: In vitro enzymatic digestion of Ela peptides with furin (western blot); type: biochemical; conditions: furin 0.2×10^−4U, 4 h, western blotting with anti-Ela antibody
Description: FIG. 4. ProEla processing. […] As assessed by western blotting using an anti-Ela antibody, furin processes the wild-type proEla 32 at the corresponding physiological cleavage sites.
Ela peptides were digested with furin for 4 h as previously described (Sfaxi et al., 2014, Scamuffa et al., 2008) and were subjected to Western blotting analysis.
The generated in vitro enzymatic digestion products were subjected to SDS-polyacrylamide gel electrophoresis in 13% gels. The primary antibody used was an anti-Ela 11 (Eurogentec). Horseradish peroxidase-conjugated secondary antibody and enhanced chemiluminescence (ECL+Plus, Amersham) were used for primary antibody revelation according to the manufacturers' instructions using a Chemiluminescence imaging system (GeneGnome, Syngene) (Sfaxi et al., 2014, Scamuffa et al., 2008).
The cDNA structure of human ELA predicts an 54 amino acids (aa) pre-proEla. Following the removal of the 22 aa of the signal peptide the hormone is released as proEla of 32 aa. […] To study the importance of the proteolytic maturation of […] by the PCs in the mediation of its function we first assessed experimentally proEla 32 processing by furin using an in vitro digestion assay.

[2] = tested on: ERK; experiment: ERK activation analysis (phospho-ERK western blot) in HEK293A GFP-APJ cells; type: cell-based, human; conditions: 1 μM; for phosphorylation of ERK: within 5 min of treatment
Description: (§1) Cells were lysed in RIPA buffer (150 mM NaCl, 50 mM Tris, 1 mM EDTA, 1% NP40, 0.25% sodium deoxycholate, pH8) and were subjected to SDS-PAGE on 12% gels. Cell lysates were analyzed by western blotting for ERK, AKT and P70 phosphorylation using an anti-phospho-ERK; anti-phospho-AKT and anti-phospho-P70 (Cell Signaling), respectively. The blots were stripped and reprobed with ERK, AKT or P70 (Cell Signaling) for data normalization. Primary antibodies were visualized using horseradish peroxidase-conjugated secondary antibodies (Amersham), and signals were detected using ECLPlus chemiluminescence system according to the manufacturers' instructions (Amersham).

[3] = tested on: AKT; experiment: AKT activation analysis (phospho-AKT western blot) in HEK293A GFP-APJ cells; type: cell-based, human; conditions: 1 μM; for phosphorylation of AKT: seen after 5 min
Description: as §1

[4] = tested on: P70s6K; experiment: P70 activation analysis (phospho-P70 western blot) in HEK293A GFP-APJ cells; type: cell-based, human; conditions: 1 μM, same conditions
Description: as §1

[5] = tested on: LC3II; experiment: mTOR signalling pathway in serum-starved RENCA cells: autophagy (LC3II); type: cell-based, murine; conditions: lentiviral expression in RENCA cells, serum starvation
Description: as §1, with “RENCA cells overexpressing lentivirus encoding for wild type proEla, mutant proEla, or only tdTomato, were maintained in serum free media for different time. Cells” for “Cells”, “LC3, NFkB, Erk1/2, AKT, S6K or actin” for “ERK, AKT and P70 phosphorylation”, “anti phosphor NFkB, anti-phospho Erk, anti-phospho-Akt, anti-phospho S6K.” for “an anti-phospho-ERK; anti-phospho-AKT and anti-phospho-P70 (Cell Signaling), respectively.”
(§2) To evaluate the role of Elabela on kidney cancer progression, we used RENCA cells expressing elabela or elabela mutated at the furin site. Cells wera starved of serum for 1, 3, 6, 12 or 24 hours and the effect of Elabela on the mTOR pathway was observed by lookind at the phosphorylation or nfkB, Erk1/2, akt, or S6K.

[6] = tested on: mTORC1 pathway; experiment: mTOR signalling pathway in serum-starved RENCA cells: mTORC1 (S6K and S6 phosphorylation); type: cell-based, murine; conditions: lentiviral expression in RENCA cells, serum starvation
Description: as §1, with “RENCA cells overexpressing lentivirus encoding for wild type proEla, mutant proEla, or only tdTomato, were maintained in serum free media for different time. Cells” for “Cells”, “LC3, NFkB, Erk1/2, AKT, S6K or actin” for “ERK, AKT and P70 phosphorylation”, “anti phosphor NFkB, anti-phospho Erk, anti-phospho-Akt, anti-phospho S6K.” for “an anti-phospho-ERK; anti-phospho-AKT and anti-phospho-P70 (Cell Signaling), respectively.”
as §2

[7] = tested on: ERK signaling; experiment: mTOR signalling pathway in serum-starved RENCA cells: ERK signaling; type: cell-based, murine; conditions: lentiviral expression in RENCA cells, serum starvation
Description: as §1, with “RENCA cells overexpressing lentivirus encoding for wild type proEla, mutant proEla, or only tdTomato, were maintained in serum free media for different time. Cells” for “Cells”, “LC3, NFkB, Erk1/2, AKT, S6K or actin” for “ERK, AKT and P70 phosphorylation”, “anti phosphor NFkB, anti-phospho Erk, anti-phospho-Akt, anti-phospho S6K.” for “an anti-phospho-ERK; anti-phospho-AKT and anti-phospho-P70 (Cell Signaling), respectively.”
as §2

[8] = tested on: mTORC2 signaling; experiment: mTOR signalling pathway in serum-starved RENCA cells: mTORC2 (P(473)AKT); type: cell-based, murine; conditions: lentiviral expression in RENCA cells, serum starvation
Description: as §1, with “RENCA cells overexpressing lentivirus encoding for wild type proEla, mutant proEla, or only tdTomato, were maintained in serum free media for different time. Cells” for “Cells”, “LC3, NFkB, Erk1/2, AKT, S6K or actin” for “ERK, AKT and P70 phosphorylation”, “anti phosphor NFkB, anti-phospho Erk, anti-phospho-Akt, anti-phospho S6K.” for “an anti-phospho-ERK; anti-phospho-AKT and anti-phospho-P70 (Cell Signaling), respectively.”
as §2

[9] = tested on: PI3K signaling; experiment: mTOR signalling pathway in serum-starved RENCA cells: PI3K (P(308)AKT); type: cell-based, murine; conditions: lentiviral expression in RENCA cells, serum starvation
Description: as §1, with “RENCA cells overexpressing lentivirus encoding for wild type proEla, mutant proEla, or only tdTomato, were maintained in serum free media for different time. Cells” for “Cells”, “LC3, NFkB, Erk1/2, AKT, S6K or actin” for “ERK, AKT and P70 phosphorylation”, “anti phosphor NFkB, anti-phospho Erk, anti-phospho-Akt, anti-phospho S6K.” for “an anti-phospho-ERK; anti-phospho-AKT and anti-phospho-P70 (Cell Signaling), respectively.”
as §2

[10] = tested on: NFkB signaling; experiment: mTOR signalling pathway in serum-starved RENCA cells: NFkB; type: cell-based, murine; conditions: lentiviral expression in RENCA cells, serum starvation
Description: as §1, with “RENCA cells overexpressing lentivirus encoding for wild type proEla, mutant proEla, or only tdTomato, were maintained in serum free media for different time. Cells” for “Cells”, “LC3, NFkB, Erk1/2, AKT, S6K or actin” for “ERK, AKT and P70 phosphorylation”, “anti phosphor NFkB, anti-phospho Erk, anti-phospho-Akt, anti-phospho S6K.” for “an anti-phospho-ERK; anti-phospho-AKT and anti-phospho-P70 (Cell Signaling), respectively.”
as §2

[11] = tested on: Renca cells; experiment: Tumorigenicity assay, Renca cells injected subcutaneously into syngeneic Balb/c mice; type: in vivo; conditions: for tumor growth / tumor progression: 1×10^5 Renca cells stably expressing the construct (lentiviral), subcutaneous, vs control cells with empty vector; for tumor growth inhibition, wild type compared to mutant: subcutaneous Renca tumors, Balb/c mice
[12] = tested on: Renca cells; experiment: Kidney tumor progression, subcapsular inoculation of Renca cells in syngenic mice; type: in vivo; conditions: Renca cells expressing the construct (lentiviral), sub-capsular injection
Excerpt: FIG. 3. Effect of Elabela expression in the kidney tumor cells (Renca) on kidney tumor progression. Elabela wild type (ela wt) or control lentivirus were used to express ela wt in Renca cells prior their subcapsular inoculation in syngenic mice.

[13] = tested on: Renca cells; experiment: Wound healing assay; type: cell-based, murine; conditions: in vitro, 8 or 24 h after serum starvation
Description: Renca cells were cultivated until sub-confluency. A scratch is realized with a tip on each well and the wound healing is observed after 8 or 24 h after serum starvation.

[14] = tested on: Renca cells; experiment: Proliferation assay (IncuCyte ZOOM live cell imaging); type: cell-based, murine; conditions: 2% foetal calf serum, 50 hours
Description: FIG. 8. RENCA (20,000 cells 4 cells/well) cells were plated in 96-well plates, proliferation assay was performed using the IncuCyte ZOOM™ live cell imaging system (Essen BioScience, MI USA). This system measures cell density. Cells are routinely propagated in RPMI 1640 medium (Life Technologies) in 2% foetal calf serum at 37° C. Cells are regularly screened for Mycoplasma (ATCC). The plate is placed into the IncuCyte ZOOM™ apparatus and images of the collective cell spreading are recorded every 2 hours for a total duration of 50 hours.

[15] = target: T1, human GFP-APJ fusion protein (Homo sapiens, UniProt P35414); experiment: APJ receptor internalization assay in HEK293A cells expressing GFP-APJ; type: cell-based; conditions: 1 μM peptide, 30 min, HEK293 cells expressing GFP-APJ
T1 construct: expressed in transfected cells
T1 sequence (P35414 1-380): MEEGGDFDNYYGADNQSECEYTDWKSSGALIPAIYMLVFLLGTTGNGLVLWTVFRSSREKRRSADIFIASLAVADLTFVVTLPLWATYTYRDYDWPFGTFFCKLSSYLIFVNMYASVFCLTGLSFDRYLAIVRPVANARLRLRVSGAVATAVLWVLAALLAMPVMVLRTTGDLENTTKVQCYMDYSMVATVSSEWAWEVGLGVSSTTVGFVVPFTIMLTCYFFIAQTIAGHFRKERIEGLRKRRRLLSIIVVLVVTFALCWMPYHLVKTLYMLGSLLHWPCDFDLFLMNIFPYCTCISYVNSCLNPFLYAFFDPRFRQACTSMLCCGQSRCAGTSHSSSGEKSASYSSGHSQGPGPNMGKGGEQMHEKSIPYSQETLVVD
Description: Cells were fixed with 4% paraformaldehyde for 10 minutes at room temperature and APJ receptor internalization was analyzed using a Nikon epifluorescence microscopy.
Ligand-induced receptor internalization is a cellular response of APJ to ligand binding and its activation.

Chain of recombinant human furin (P09958 108-794): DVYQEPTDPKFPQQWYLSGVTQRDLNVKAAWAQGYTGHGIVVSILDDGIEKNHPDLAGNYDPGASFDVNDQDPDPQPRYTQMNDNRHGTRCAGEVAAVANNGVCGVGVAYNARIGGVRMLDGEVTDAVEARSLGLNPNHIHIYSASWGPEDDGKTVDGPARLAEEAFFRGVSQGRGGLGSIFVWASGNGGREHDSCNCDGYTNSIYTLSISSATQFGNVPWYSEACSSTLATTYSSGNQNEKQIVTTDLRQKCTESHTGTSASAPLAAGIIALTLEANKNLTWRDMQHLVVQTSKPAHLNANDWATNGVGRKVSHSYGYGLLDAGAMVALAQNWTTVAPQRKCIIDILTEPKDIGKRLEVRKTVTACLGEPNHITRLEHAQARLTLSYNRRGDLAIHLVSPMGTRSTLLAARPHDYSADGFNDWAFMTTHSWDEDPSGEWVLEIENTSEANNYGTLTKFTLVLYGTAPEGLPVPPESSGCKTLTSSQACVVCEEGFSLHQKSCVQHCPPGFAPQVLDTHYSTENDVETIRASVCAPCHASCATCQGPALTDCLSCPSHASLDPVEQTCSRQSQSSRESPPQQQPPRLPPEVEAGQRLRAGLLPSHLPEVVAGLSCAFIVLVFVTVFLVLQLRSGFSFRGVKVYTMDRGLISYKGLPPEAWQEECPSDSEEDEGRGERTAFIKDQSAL

Substance | phosphorylation of ERK after 15 min [2] | phosphorylation of ERK [2] | AKT activation compared to effect on ERK activation [3] | time of peak AKT phosphorylation [3] | phosphorylation of AKT [3] | P70s6K activation [4] | induction of autophagy, estimated by LC3II levels [5] | ERK signaling, determined by ERK phosphorylation [7] | mTORC2 signaling, determined by P(473)AKT [8] | PI3K signaling, determined by P(308)AKT [9] | NFkB signaling [10] | also measured
QRPVNLTMRRKLRKHNCLQRRCMPLHSRVPFP [wild type proEla 32] | reduced | able to induce the phosphorylation of ERK | lower AKT activation while compared to their effect on ERK activation | about 15 min | weak visible phosphorylation of AKT | failed to induce significant effect | block in the induction of autophagy | enhanced inhibition of ERK signaling | No effect in mTORC2 signaling | No effect in PI3K signaling | No effect in NFkB signaling | processing by furin, products generated ([1]; listed as wild type proEla): generated predominantly the mature Ela 11 aa; processing by furin, products generated ([1]; listed as wild-type proEla 32): generates only the Ela 11 aa; ERK activation compared between the peptides ([2]; same conditions): higher as compared to mut proEla and Ela 11 effect; mTORC1 pathway, determined by S6K and S6 phosphorylation ([6]; listed as WT): sustained activation of mTORC1 pathway; also recorded: induced mTORC1 activation; tumor growth / tumor progression ([11]; listed as Ela): inhibits tumor progression; tumor growth / tumor progression ([11]; listed as wild type proEla): smaller size of tumors; tumor growth / tumor progression ([11]; listed as wild-type proEla 32): reduced significantly tumor growth; tumor growth inhibition, wild type compared to mutant [11]: inhibit more efficiently tumor growth while compared to mutant proEla 32; tumor growth inhibition, wild type compared to mutant ([11]; listed as Wild type proEla 32): inhibited more efficiently tumor growth while compared to mutant pro Ela 32; tumor progression [12]: inhibits tumor progression; wound healing of Renca cells [13]: inhibits wound healing of Renca cells; cells proliferation [14]: inhibits renca cells proliferation
mutant proEla 32: proEla 32 in which cleavage sites R31/R32 and R42/R43 were replaced by S31/S32 and S42/S43 (positions 9, 10, 20, 21 of SEQ ID NO: 1) (QRPVNLTMSSKLRKHNCLQSSCMPLHSRVPFP; listed as Homo sapiens) | reduced | able to induce the phosphorylation of ERK | lower AKT activation while compared to their effect on ERK activation | about 15 min | weak visible phosphorylation of AKT | failed to induce significant effect | block in the induction of autophagy | enhanced inhibition of ERK signaling | No effect in mTORC2 signaling | No effect in PI3K signaling | No effect in NFkB signaling | processing by furin, products generated ([1]; listed as mut proEla 32): failed to generate any products; processing by furin, products generated ([1]; listed as mutant peptide ProEla 32): failed to generate any mature Ela products; APJ internalization [15]: able to activate the APJ receptor and mediate its internalization; mTORC1 pathway, determined by S6K and S6 phosphorylation ([6]; listed as MUT): sustained activation of mTORC1 pathway; also recorded: induced mTORC1 activation; tumor growth / tumor progression [11]: reduced significantly tumor growth; tumor growth / tumor progression ([11]; listed as mut ProEla): smaller size of tumors; tumor growth / tumor progression ([11]; listed as mutant ELA polypeptide): capable of inhibiting tumor progression
